Data taken from patent US20200405697A1, “Antitumor Agent” (Taiho Pharmaceutical Co., Ltd, priority 2017, published 2020).

target: T1, human RNR (histidine tagged human M1 and human M2 proteins) (Homo sapiens, UniProt P23921); assay: Human RNR inhibition effect (dCDP formation from CDP); type: biochemical; conditions: 10 μM CDP, 37° C. for 30 minutes, read-out: RNR inhibitory activity IC50
T1 construct: made in house; host or cells: Escherichia coli
T1 sequence (P23921 1-792): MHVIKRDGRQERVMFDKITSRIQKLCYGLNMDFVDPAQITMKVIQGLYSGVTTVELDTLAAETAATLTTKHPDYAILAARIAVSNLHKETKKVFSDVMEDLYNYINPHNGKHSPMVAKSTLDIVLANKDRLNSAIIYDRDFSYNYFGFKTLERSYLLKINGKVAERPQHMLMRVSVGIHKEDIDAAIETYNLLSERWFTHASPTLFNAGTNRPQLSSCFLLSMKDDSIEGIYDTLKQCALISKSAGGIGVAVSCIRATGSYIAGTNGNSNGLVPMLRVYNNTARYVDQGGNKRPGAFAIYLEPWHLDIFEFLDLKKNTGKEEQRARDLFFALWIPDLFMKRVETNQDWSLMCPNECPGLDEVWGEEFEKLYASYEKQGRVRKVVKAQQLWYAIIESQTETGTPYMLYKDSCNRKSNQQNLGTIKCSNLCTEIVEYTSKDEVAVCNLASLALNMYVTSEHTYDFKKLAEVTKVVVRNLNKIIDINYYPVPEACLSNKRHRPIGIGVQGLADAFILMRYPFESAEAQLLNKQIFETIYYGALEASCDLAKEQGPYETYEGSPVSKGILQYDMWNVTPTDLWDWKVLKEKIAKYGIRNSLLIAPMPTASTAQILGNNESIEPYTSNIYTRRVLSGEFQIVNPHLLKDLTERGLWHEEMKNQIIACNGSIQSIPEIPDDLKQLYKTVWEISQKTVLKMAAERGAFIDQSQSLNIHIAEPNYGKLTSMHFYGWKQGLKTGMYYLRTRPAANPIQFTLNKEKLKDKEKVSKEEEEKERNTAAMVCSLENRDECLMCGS
Summary of the method: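 His-tagged human M1 (isoform 1) and N-terminal 59-aa-truncated M2 (isoform 2), E. coli-expressed, Ni-purified, preincubated 20 min with compound (1% DMSO). Reaction with 10 μM CDP, 2 mM ATP, 0.24 mM NADPH, 6 mM DTT, 4 mM Mg acetate, 100 mM KCl, 50 mM HEPES pH 7.2, 30 min at 37° C. dCDP formed quantified by reverse-phase HPLC after heat stop.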

| Compound | IC50 [µM] |
| --- | --- |
| CCc1ccc(S(=O)(=O)N[C@H](c2n[nH]c(=O)o2)[C@H](C)c2c(F)ccc(C)c2C)c(C(N)=O)c1 [Example 18, 5-Ethyl-2-(N-((1S,2R)-2-(6-fluoro-2,3-dimethylphenyl)-1-(5-oxo-4,5-dihydro-1,3,4-oxadiazol-2-yl)propyl)sulfamoyl)benzamide] | 0.13 |
| Cc1ccc(F)c([C@@H](C)[C@H](NS(=O)(=O)c2ccc3c(c2)C(C)(O)CCC3)c2n[nH]c(=O)o2)c1C (stereo partly drawn) [Example 194, N-((1S,2R)-2-(6-fluoro-2,3-dimethylphenyl)-1-(5-oxo-4,5-dihydro-1,3,4-oxadiazol-2-yl)propyl)-8-hydroxy-8-methyl-5,6,7,8-tetrahydronaphthalene-2-sulfonamide] | 0.36 |
| Cc1ccc(F)c([C@@H](C)[C@H](NS(=O)(=O)c2c(F)cc(Cl)cc2F)c2n[nH]c(=O)o2)c1C [Example 111, 4-chloro-2,6-difluoro-N-((1S,2R)-2-(6-fluoro-2,3-dimethylphenyl)-1-(5-oxo-4,5-dihydro-1,3,4-oxadiazol-2-yl)propyl)benzenesulfonamide] | 0.27 |
| Cc1cc(S(=O)(=O)N[C@H](c2n[nH]c(=O)o2)[C@H](C)c2c(F)ccc(C)c2C)c(C(N)=O)cc1Cl [Example 257, 5-chloro-2-(N-((1S,2R)-2-(6-fluoro-2,3-dimethylphenyl)-1-(5-oxo-4,5-dihydro-1,3,4-oxadiazol-2-yl)propyl)sulfamoyl)-4-methylbenzamide] | 0.1 |
| COC(=O)c1cc(Cl)cnc1S(=O)(=O)N[C@H](c1n[nH]c(=O)o1)[C@H](C)c1c(F)ccc(C)c1C [Example 118, methyl 5-chloro-2-(N-((1S,2R)-2-(6-fluoro-2,3-dimethylphenyl)-1-(5-oxo-4,5-dihydro-1,3,4-oxadiazol-2-yl)propyl)sulfamoyl)nicotinate] | 0.34 |
| COc1cc(Cl)ccc1S(=O)(=O)N[C@H](c1n[nH]c(=O)o1)[C@H](C)c1cccc2cccc(C)c12 [Example 71, 4-chloro-2-methoxy-N-((1S,2R)-2-(8-methylnaphthalen-1-yl)-1-(5-oxo-4,5-dihydro-1,3,4-oxadiazol-2-yl)propyl)benzenesulfonamide] | 0.24 |
| Cc1c(Cl)ccc(F)c1[C@@H](C)[C@H](NS(=O)(=O)c1ncc(Cl)cc1C(N)=O)c1n[nH]c(=O)o1 [Example 249, 5-chloro-2-(N-((1S,2R)-2-(3-chloro-6-fluoro-2-methylphenyl)-1-(5-oxo-4,5-dihydro-1,3,4-oxadiazol-2-yl)propyl)sulfamoyl)nitotinamide] | 0.1 |
| COC(=O)c1nc(S(=O)(=O)N[C@H](c2n[nH]c(=O)o2)[C@H](C)c2c(F)ccc(C)c2C)ccc1Cl [Example 109, methyl 3-chloro-6-(N-((1S,2R)-2-(6-fluoro-2,3-dimethylphenyl)-1-(5-oxo-4,5-dihydro-1,3,4-oxadiazol-2-yl)propyl)sulfamoyl)picolinate] | 0.06 |
| Cc1cccc([C@@H](C)[C@H](NS(=O)(=O)c2ccc(Cl)c3c2OCC=C3)c2n[nH]c(=O)o2)c1C [Example 295, 5-chloro-N-((1S,2R)-2-(2,3-dimethylphenyl)-1-(5-oxo-4,5-dihydro-1,3,4-oxadiazol-2-yl)propyl)-2H-chromene-8-sulfonamide] | 0.79 |
| Cc1c(C(F)(F)F)ccc(F)c1[C@@H](C)[C@H](NS(=O)(=O)c1ccc(Cl)cc1C(N)=O)c1n[nH]c(=O)o1 [Example 27, 5-chloro-2-(N-((1S,2R)-2-(6-fluoro-2-methyl-3-(trifluoromethyl)phenyl)-1-(5-oxo-4,5-dihydro-1,3,4-oxadiazol-2-yl)propyl)sulfamoyl)benzamide] | 0.55 |
| Cc1ccc(F)c([C@@H](C)[C@H](NS(=O)(=O)c2cc(OCC(F)F)ccc2C(N)=O)c2n[nH]c(=O)o2)c1C [Example 263, 4-(2,2-difluoroethoxy)-2-(N-((1S,2R)-2-(6-fluoro-2,3-dimethylphenyl)-1-(5-oxo-4,5-dihydro-1,3,4-oxadiazol-2-yl)propyl)sulfamoyl)benzamide] | 0.07 |
